What all share (format): cell-based
In data set [1] the target is T1, Nuclear factor erythroid 2-related factor 2 (Homo sapiens) (UniProt Q16236).
T1 sequence (whole entry): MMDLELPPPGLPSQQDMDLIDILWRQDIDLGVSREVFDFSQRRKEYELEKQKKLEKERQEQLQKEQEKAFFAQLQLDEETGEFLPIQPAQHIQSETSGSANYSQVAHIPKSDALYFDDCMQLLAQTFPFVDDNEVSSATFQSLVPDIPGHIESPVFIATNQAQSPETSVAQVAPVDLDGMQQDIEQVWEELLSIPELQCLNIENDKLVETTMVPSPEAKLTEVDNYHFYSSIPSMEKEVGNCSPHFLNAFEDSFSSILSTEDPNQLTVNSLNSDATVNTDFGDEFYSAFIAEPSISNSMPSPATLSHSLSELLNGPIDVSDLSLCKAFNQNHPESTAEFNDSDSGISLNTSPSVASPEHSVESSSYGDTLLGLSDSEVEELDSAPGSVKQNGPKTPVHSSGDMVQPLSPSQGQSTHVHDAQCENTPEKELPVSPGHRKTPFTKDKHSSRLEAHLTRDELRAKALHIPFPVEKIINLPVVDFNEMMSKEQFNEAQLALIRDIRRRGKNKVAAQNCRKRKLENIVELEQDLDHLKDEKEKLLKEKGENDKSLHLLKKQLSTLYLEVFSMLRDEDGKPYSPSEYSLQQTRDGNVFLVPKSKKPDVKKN
Briefly: Activation of Nrf2 in human HepG2-ARE-C8 cells assessed as upregulation of ARE level at 40 uM after 12 hrs by luciferase reporter gene assay relative to control.

Data set [2] concerns the target T1, Nuclear factor erythroid 2-related factor 2 (Homo sapiens). Briefly: Activation of Nrf2 in human HepG2-ARE-C8 cells assessed as upregulation of ARE level at 80 uM after 12 hrs by luciferase reporter gene assay relative to control. (In general: A reporter such as luciferase makes a cellular process visible.)
Data set [3] has the same target. As to the kind of experiment: Activation of Nrf2 in human HepG2-ARE-C8 cells assessed as upregulation of ARE level at 160 uM after 12 hrs by luciferase reporter gene assay relative to control.
The next data set deals with HCT-116. Briefly: Cytotoxicity against human HCT116 cells assessed as reduction of cell proliferation at 80 uM after 24 hrs by MTT assay. The settings on record: hct-116, 24 h.
The target of data set [4] is T1, Nuclear factor erythroid 2-related factor 2 (Homo sapiens). As to the kind of experiment: Activation of Nrf2 in human HepG2-ARE-C8 cells assessed as upregulation of ARE level at 20 uM after 12 hrs by luciferase reporter gene assay relative to control.
The target is the same in data set [5]. Briefly: Activation of Nrf2 in human HepG2-ARE-C8 cells assessed as upregulation of ARE level at 0.2 uM after 12 hrs by luciferase reporter gene assay relative to control.
Data set [6] shares this target. As to the kind of experiment: Activation of Nrf2 in human HepG2-ARE-C8 cells assessed as upregulation of ARE level at 0.02 uM after 12 hrs by luciferase reporter gene assay relative to control.
The target is the same in data set [7]. Briefly: Activation of Nrf2 in human HepG2-ARE-C8 cells assessed as upregulation of ARE level at 2 uM after 12 hrs by luciferase reporter gene assay relative to control.

Results on 21 compounds are retold here after ChEMBL document CHEMBL3585308, “Discovery and Modification of in Vivo Active Nrf2 Activators with 1,2,4-Oxadiazole Core: Hits Identification and Structure-Activity Relationship Study” (J Med Chem, 2015).

Each structure is given as a SMILES string.

On to `CCCCc1ccc(-c2nc(-c3ccc4nc[nH]c4c3)no2)cc1`, for which the fold change (FC) in data set [1] turned out to be 37.6; in data set [2], 14.8; in data set [3] it was 12; in data set [4], 30.8; in data set [5] it was 2.08; in data set [6] it was 1.55. Moreover, in data set [7], the fold change (FC) came to 10.9. In addition, the Activity result with HCT-116 is “Non-toxic”.

For `CCCc1ccc(-c2nc(-c3ccc4nc[nH]c4c3)no2)cc1`, the fold change (FC) in data set [1] is 6.16; in data set [2], 7.79; in data set [3], 10; in data set [4], 6.07; in data set [5], 1.73; in data set [6] it was 1.48. Moreover, the fold change (FC) in data set [7] is 2.25. The Activity result in the data set on HCT-116 was “Non-toxic”.

`c1ccc(-c2nc(-c3ccc4nc[nH]c4c3)no2)nc1`: the fold change (FC) was 7.51 in data set [1]; 2.65 in data set [2]; 2.55 in data set [3]; 9.49 in data set [4]; 3.42 in data set [5]; 1.06 in data set [6]. Also, the fold change (FC) in data set [7] amounted to 5.09. The Activity result with HCT-116 is given as “Non-toxic”.

For the compound `FC(F)(F)c1ccc(-c2nc(-c3ccc4nc[nH]c4c3)no2)cc1`, the fold change (FC) in data set [1] turned out to be 21.6; in data set [2], 6.56; in data set [3], 1.13; in data set [4], 17.7; in data set [5], 2.85; in data set [6], 1.35. Further, the fold change (FC) in data set [7] amounted to 6.91. In the data set on HCT-116, the Activity entry is listed as “Non-toxic”.

With `Cc1ccc(-c2nc(-c3ccc4nc[nH]c4c3)no2)cc1`, the fold change (FC) in data set [1] came out at 16.6; in data set [2] it was 12.7; in data set [3], 9.22; in data set [4], 20.6; in data set [5], 3.29; in data set [6] it was 2.11. Further, the fold change (FC) in data set [7] came out at 7.78. In addition, in the data set with HCT-116, the Activity entry was “Non-toxic”.

On to `Cn1cnc2ccc(-c3noc(-c4ccccc4)n3)cc21`, for which the fold change (FC) in data set [1] came to 8.41; in data set [2], 3.33; in data set [3], 1.75; in data set [4], 17.4; in data set [5], 3.41; in data set [6] it was 2.03. For the same compound, the fold change (FC) in data set [7] turned out to be 18.2. For the same compound, the Activity entry in the data set with HCT-116 was “Non-toxic”.

With `CC(C)(C)C1=CC(=O)C=CC1=O`, the fold change (FC) in data set [1] is 2.14; in data set [2] it was 5.27; in data set [3], 8.46; in data set [4], 1.41; in data set [5] it was 1.25; in data set [6], 1.18. In addition, the fold change (FC) in data set [7] was determined as 1.24.

In the case of `c1ccc2nc(-c3nc(-c4ccc5nc[nH]c5c4)no3)ccc2c1`, the fold change (FC) in data set [1] came out at 16.9; in data set [2] it was 6.61; in data set [3], 7.09; in data set [4] it was 20.5; in data set [5], 2.04; in data set [6], 1.61. For the same compound, the fold change (FC) in data set [7] stood at 4.35. The Activity entry in the data set on HCT-116 is on record as “Non-toxic”.

Regarding `O=[N+]([O-])c1cccc(-c2nc(-c3ccc4nc[nH]c4c3)no2)c1`, the fold change (FC) in data set [1] came out at 21.8; in data set [2] it was 16.5; in data set [3], 11.5; in data set [4], 11.6; in data set [5], 1.56; in data set [6] it was 1.43. Moreover, the fold change (FC) in data set [7] was 4.74. The Activity result with HCT-116 is recorded as “Non-toxic”.

In the case of `Cc1cccc(-c2nc(-c3ccc4nc[nH]c4c3)no2)c1`, the fold change (FC) was 10.4 in data set [1]; 17.3 in data set [2]; 8.99 in data set [3]; 14.2 in data set [4]; 1.94 in data set [5]; 1.44 in data set [6]. The fold change (FC) in data set [7] stood at 4.84. The Activity entry in the data set with HCT-116 was “Non-toxic”.

Turning to `COc1ccc(OC)c(-c2nc(-c3ccc4nc[nH]c4c3)no2)c1`, the fold change (FC) in data set [1] stood at 4.24; in data set [2] it was 3.7; in data set [3], 5.2; in data set [4], 4.48; in data set [5], 2.96; in data set [6] it was 1.7. For the same compound, the fold change (FC) in data set [7] was determined as 3.21. In the data set with HCT-116, the Activity result is “Non-toxic”.

With `COc1cccc(-c2nc(-c3ccc4nc[nH]c4c3)no2)c1`, the fold change (FC) in data set [1] turned out to be 14.4; in data set [2], 12.4; in data set [3] it was 8.38; in data set [4], 12.4; in data set [5], 1.95; in data set [6] it was 1.79. Further, the fold change (FC) in data set [7] was 3.16. Also, in the data set on HCT-116, the Activity result is “Non-toxic”.

For `COc1ccc(-c2nc(-c3ccc4nc[nH]c4c3)no2)cc1`, the fold change (FC) was 13 in data set [1]; 4.92 in data set [2]; 5.52 in data set [3]; 9.84 in data set [4]; 2.72 in data set [5]; 1.43 in data set [6]. Moreover, the fold change (FC) in data set [7] is 3.27. In addition, the Activity entry in the data set on HCT-116 was “Non-toxic”.

On to `N#Cc1ccc(-c2nc(-c3ccc4nc[nH]c4c3)no2)cc1`, for which the fold change (FC) in data set [1] was 11.9; in data set [2] it was 10; in data set [3], 12.7; in data set [4] it was 8.12; in data set [5], 1.25; in data set [6] it was 1.22. In data set [7], the fold change (FC) came to 1.35. Moreover, in the data set with HCT-116, the Activity result is reported as “Non-toxic”.

In the case of `Cn1cnc2ccc(-c3noc(-c4ccc5ccccc5c4)n3)cc21`, the fold change (FC) in data set [1] was determined as 1.45; in data set [2] it was 1.37; in data set [3], 2.44; in data set [4], 1.39; in data set [5], 1.4; in data set [6], 1.44. Besides, in data set [7], the fold change (FC) amounted to 1.43. The Activity entry in the data set with HCT-116 is listed as “Non-toxic”.

On to `Oc1ccccc1-c1nc(-c2ccc3nc[nH]c3c2)no1`, for which the fold change (FC) in data set [1] was found to be 2.75; in data set [2], 1.34; in data set [3], 1.17; in data set [4], 2.67; in data set [5], 1.54; in data set [6], 1.72. Moreover, the fold change (FC) in data set [7] stood at 1.53. Also, the Activity result in the data set on HCT-116 was “Non-toxic”.

As to `N#Cc1cccc(-c2nc(-c3ccc4nc[nH]c4c3)no2)c1`, the fold change (FC) in data set [1] stood at 0.91; in data set [2] it was 3.16; in data set [3], 8.05; in data set [4], 0.87; in data set [5], 1.36; in data set [6], 1.26. Also, in data set [7], the fold change (FC) is 1.42. The Activity result in the data set on HCT-116 was “Non-toxic”.

Take `c1ccc(-c2ccc(-c3nc(-c4ccc5nc[nH]c5c4)no3)cc2)cc1`: the fold change (FC) in data set [1] was 10.7; in data set [2] it was 15; in data set [3], 11; in data set [4], 2; in data set [5] it was 1.54; in data set [6] it was 1.18. Moreover, the fold change (FC) in data set [7] was found to be 1.52. For the same compound, the Activity entry with HCT-116 was “Non-toxic”.

`c1cc(-c2nc(-c3ccc4nc[nH]c4c3)no2)ccn1`: the fold change (FC) in data set [1] is 4.95; in data set [2], 5.99; in data set [3], 10.6; in data set [4], 4.36; in data set [5] it was 2.54; in data set [6], 1.91. In addition, the fold change (FC) in data set [7] was 4.27. In the data set on HCT-116, the Activity entry is reported as “Non-toxic”.

In the case of `COc1cc(-c2nc(-c3ccc4nc[nH]c4c3)no2)cc(OC)c1OC`, the fold change (FC) in data set [1] is 3.24; in data set [2], 13.9; in data set [3], 22.5; in data set [4] it was 3.23; in data set [5] it was 2.24; in data set [6] it was 1.31. Also, the fold change (FC) in data set [7] came to 2.41. The Activity entry with HCT-116 is recorded as “Non-toxic”.

With `COC(=O)/C=C/C(=O)OC`, the fold change (FC) worked out at 2.97 in data set [1]; 1.65 in data set [4]; 1 in data set [5]; 0.82 in data set [6]; 1.1 in data set [7].
